# Experimental data reported in ChEMBL document CHEMBL5715936, “Selective Itk inhibitors block T-cell activation and murine lung inflammation” (Biochemistry, 2004).
# The source made the active and inactive calls. The calls are words filed in the database; no cut-off is given here.
# What was measured:
# Mus musculus [1] = experiment: In vivo inhibition of IL-2 production in Balb/c mouse serum at >=50 mg/kg, sc administered for 15 mins in presence of anti-CD3 antibody by ELISA analysis; assay type: functional, organism-based
# Mus musculus [2] = experiment: In vivo inhibition of IL-2 production in Balb/c mouse serum administered for 15 mins in presence of anti-CD3 antibody by ELISA analysis; assay type: functional, organism-based; conditions: dose 50-100 mg/kg, route sc
# [3] = molecular target: T1, Tyrosine-protein kinase ITK/TSK (Homo sapiens) (UniProt Q08881); experiment: Inhibition of Itk in human Jurkat T cells assessed as inhibition of IL-2 secretion incubated for 16 hrs in presence of anti-CD3 antibody G19-4 by ELISA analysis; assay type: cell-based
# T1 sequence (whole entry): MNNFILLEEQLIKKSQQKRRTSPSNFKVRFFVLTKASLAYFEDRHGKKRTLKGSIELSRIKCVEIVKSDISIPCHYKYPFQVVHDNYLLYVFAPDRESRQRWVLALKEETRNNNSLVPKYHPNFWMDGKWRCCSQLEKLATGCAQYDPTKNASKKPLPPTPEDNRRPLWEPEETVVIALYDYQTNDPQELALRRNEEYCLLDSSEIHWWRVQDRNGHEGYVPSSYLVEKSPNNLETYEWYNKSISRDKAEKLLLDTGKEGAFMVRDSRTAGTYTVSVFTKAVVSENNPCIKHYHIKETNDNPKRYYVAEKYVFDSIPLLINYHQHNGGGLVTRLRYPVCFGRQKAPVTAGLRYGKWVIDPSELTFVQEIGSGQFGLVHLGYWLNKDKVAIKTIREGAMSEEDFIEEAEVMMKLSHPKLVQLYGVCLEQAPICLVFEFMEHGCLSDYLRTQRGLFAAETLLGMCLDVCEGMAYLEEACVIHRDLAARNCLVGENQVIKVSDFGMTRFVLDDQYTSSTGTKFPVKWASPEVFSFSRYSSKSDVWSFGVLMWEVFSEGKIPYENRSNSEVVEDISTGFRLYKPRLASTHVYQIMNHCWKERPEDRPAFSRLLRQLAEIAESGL
# [4] = molecular target: Epidermal growth factor receptor (Homo sapiens, UniProt P00533); experiment: Inhibition of EGFR (unknown origin) using GST-SLP-76 as peptide substrate incubated for 10 mins in presence of [gamma-33P]ATP by scintillation counter assay
# Chain of Epidermal growth factor receptor (P00533 whole entry): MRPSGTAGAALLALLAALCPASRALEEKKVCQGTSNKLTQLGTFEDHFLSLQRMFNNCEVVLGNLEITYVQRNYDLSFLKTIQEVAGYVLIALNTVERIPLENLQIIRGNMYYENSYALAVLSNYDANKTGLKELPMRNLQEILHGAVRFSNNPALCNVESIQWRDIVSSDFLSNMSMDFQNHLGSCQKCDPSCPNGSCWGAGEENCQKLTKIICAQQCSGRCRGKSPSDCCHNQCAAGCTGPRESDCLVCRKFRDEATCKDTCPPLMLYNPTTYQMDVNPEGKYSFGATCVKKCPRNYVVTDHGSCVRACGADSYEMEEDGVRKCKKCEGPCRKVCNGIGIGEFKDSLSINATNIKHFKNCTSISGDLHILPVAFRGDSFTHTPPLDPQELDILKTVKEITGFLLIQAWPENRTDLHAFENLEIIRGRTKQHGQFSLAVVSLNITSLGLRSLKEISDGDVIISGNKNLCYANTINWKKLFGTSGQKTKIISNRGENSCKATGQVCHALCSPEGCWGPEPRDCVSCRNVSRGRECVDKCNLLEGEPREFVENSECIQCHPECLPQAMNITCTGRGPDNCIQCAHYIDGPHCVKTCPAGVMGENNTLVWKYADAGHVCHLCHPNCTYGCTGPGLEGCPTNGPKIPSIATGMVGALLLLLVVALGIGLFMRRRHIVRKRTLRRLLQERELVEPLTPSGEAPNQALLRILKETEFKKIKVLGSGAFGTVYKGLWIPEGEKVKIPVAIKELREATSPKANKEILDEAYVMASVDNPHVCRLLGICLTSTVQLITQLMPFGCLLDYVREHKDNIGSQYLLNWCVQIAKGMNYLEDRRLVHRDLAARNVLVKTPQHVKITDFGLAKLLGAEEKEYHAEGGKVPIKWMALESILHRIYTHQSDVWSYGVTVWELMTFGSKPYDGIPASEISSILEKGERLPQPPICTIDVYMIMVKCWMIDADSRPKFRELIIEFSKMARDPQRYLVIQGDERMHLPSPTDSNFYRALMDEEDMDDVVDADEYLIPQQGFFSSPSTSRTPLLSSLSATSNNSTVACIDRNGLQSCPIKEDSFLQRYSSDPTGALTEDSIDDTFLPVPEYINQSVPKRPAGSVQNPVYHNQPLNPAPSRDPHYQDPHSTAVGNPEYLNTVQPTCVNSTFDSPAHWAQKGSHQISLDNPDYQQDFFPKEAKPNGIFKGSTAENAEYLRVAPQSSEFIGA
# [5] = molecular target: Tyrosine-protein kinase ITK/TSK (Mus musculus, UniProt Q03526); experiment: (§1) Inhibition of Itk in mouse EL4 cells assessed as inhibition of IL-2 secretion incubated for 16 hrs in presence of anti-CD3 antibody G19-4 by ELISA analysis; assay type: cell-based
# Chain of Tyrosine-protein kinase ITK/TSK (Q03526 whole entry): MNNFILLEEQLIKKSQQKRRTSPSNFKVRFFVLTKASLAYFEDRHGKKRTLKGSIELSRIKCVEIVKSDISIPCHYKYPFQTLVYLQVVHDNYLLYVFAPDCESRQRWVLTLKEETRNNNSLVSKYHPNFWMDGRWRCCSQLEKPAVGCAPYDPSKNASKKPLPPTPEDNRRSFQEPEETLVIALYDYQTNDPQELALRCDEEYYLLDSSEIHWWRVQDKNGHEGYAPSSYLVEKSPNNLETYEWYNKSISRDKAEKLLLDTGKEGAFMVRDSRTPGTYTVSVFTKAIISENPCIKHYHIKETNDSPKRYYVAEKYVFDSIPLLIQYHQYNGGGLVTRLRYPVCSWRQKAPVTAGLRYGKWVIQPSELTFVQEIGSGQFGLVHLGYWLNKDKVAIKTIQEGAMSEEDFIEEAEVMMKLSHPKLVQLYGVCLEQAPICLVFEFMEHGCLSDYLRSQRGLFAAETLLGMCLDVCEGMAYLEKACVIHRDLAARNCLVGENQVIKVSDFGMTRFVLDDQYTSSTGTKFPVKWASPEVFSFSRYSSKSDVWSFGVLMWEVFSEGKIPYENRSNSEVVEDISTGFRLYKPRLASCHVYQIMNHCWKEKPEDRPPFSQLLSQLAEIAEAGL
# [6] = molecular target: Tyrosine-protein kinase ITK/TSK (Mus musculus) (UniProt Q03526); experiment: as §1; assay type: cell-based
# Chain of Tyrosine-protein kinase ITK/TSK (Mus musculus) (Q03526 whole entry): as above
# Protein kinase C (PKC) = experiment: Inhibition of PKC (unknown origin) using GST-SLP-76 as peptide substrate incubated for 10 mins in presence of [gamma-33P]ATP by scintillation counter assay; assay type: protein assay, Homo sapiens
# [7] = molecular target: Cyclin-dependent kinase 2 (Homo sapiens, UniProt P24941); experiment: Inhibition of Cdk2 (unknown origin) using GST-SLP-76 as peptide substrate incubated for 10 mins in presence of [gamma-33P]ATP by scintillation counter assay
# Mus musculus [8] = experiment: Anti-inflammatory activity against ovalbumin induced Balb/c mouse bronchoalveolar lavage assessed as reduction in total cell infiltration administered twice daily for 3 days by microscopic analysis; assay type: functional, organism-based; conditions: dose 5-25 mg/kg, route sc, time 3.0 day
inhibition [3],IC50 [4],IC50 [5],inhibition [6],IC50 (Protein kinase C (PKC)),IC50 [7],SMILES,inhibition (Mus musculus [1]),inhibition (Mus musculus [2]),Activity (Mus musculus [8])
Dose-Dependent Effect,> 50 µM,0.25 µM,Dose-Dependent Effect,21 µM,,CC(=O)N1CCN(C(=O)c2cc(CSc3cnc(NC(=O)c4ccc(CNC(C)C(C)(C)C)cc4)s3)cc(C)c2C)CC1 (centres undefined),Active,Dose-Dependent Effect,
,,,,,29 µM,COc1cc(C)c(Sc2cnc(NC(=O)c3ccc(CNC(C)C(C)(C)C)cc3)s2)cc1C(=O)N1CCN(C(C)=O)CC1 (centres undefined),,,Dose-Dependent Effect
